# Source: patent publication US20260207632A1, “C[…] THERAPY” (KINGDOM THERAPEUTICS LIMITED, priority 2022, published 2026)
# Experiments:
# [1] = test system: rat VPA model of autism; test: Open field behaviour (P31-32): locomotor activity, centre crossing, circling, self-grooming in VPA rat model; assay type: in vivo; parameters: key to open field (spontaneous LMA on day 1) / open field (habituation LMA on day 2) / centre crossing / centre time / Circling / Grooming: +: improvement; Ø: no change
# Procedure: (§1) In the first study, a sub-chronic 8-day dosing schedule was employed with the test compound CBD administered alone (10, 30 and 60 mg/kg, p.o. VPA/CBD; dose volume 5 ml/kg). Control animals were administered sterile saline (0.9% w/v, i.p.) in utero and the vehicle control (ethanol: Kolliphor HS-15:0.9% saline (1:1:18, v/v/v) p.o. VEH/VEH). The test compound and vehicle control were administered to the animals once daily for 7 days prior to, and once again on each day of behavioural assessment, 60 minutes prior to test which consisted of a battery of behavioural paradigms: P30 social play and bottle brush test, P31-32 open field exploratory behaviour. A reference positive control, the atypical antipsychotic risperidone (0.125 mg/kg, i.p., once per day for 8 days prior to and for duration of behavioural testing), was included in study one for comparison. Subsequent to behavioural analysis the effect of CBD on gastrointestinal permeability was evaluated four hours following oral administration of fluorescein isothiocyanate-labelled dextran measured in plasma on postnatal day 33. On postnatal day 34, 60 minutes post a final treatment with the test agents, animals were humanely euthanised and samples collected to evaluate inflammatory biomarkers, gastrointestinal function and histology. 5 In the second study, the sub-optimal dose of CBD (30 mg/kg, p.o.) was evaluated in combination with administration of THC at increasing concentration (0.75, 1.5 and 3 mg/kg, p.o. VPA/CBD+THC). Comparison was made to CBD administered alone at the sub-optimal and effective doses (30 and 60 mg/kg, p.o.) and to vehicle controls as per study one. Behavioural and gastrointestinal readouts were examined as per study one with terminal samples collected on the final day of the experiment.
# Following eight days treatment with the test compound animals were scored for locomotor activity and exploratory behaviour in two 10-minute trials within an open field arena over two days, a protocol widely used at Berand and allows to distinguish between day 1 spontaneous locomotor activity and day 2 locomotor activity following habituation (pre-exposure to the arena on day 1). Each day the animals were placed into a […] black Perspex box with 30 cm side walls, under low light and monitored via remote video capture for spontaneous activity. Linked to Ethovision XT image analysis software these videos were analysed for total distance moved and number and duration of centre zone crossings as an indication of hyperactivity and anxiety-like behaviour. Manual scoring of the videos was conducted (blinded to treatment group) to determine frequency of circling behaviour (number of 360 degree turns) and duration of self-grooming (n=8).
# [2] = test system: rat VPA model of autism; test: Gastrointestinal permeability (P33), FITC-dextran in plasma, VPA rat model; assay type: in vivo; parameters: key to gastrointestinal permeability: +: improvement; Ø: no change
# Procedure: as §1
# This assay is an indirect measure of total intestinal permeability. Animals are given an oral gavage of a fluorescently labelled small molecule (FITC-dextran), and at a subsequent timepoint the difference in fluorescence pre- and post-gavage is measured in plasma (Thevaranjan et al., 2017). Prior to gavage, a 50 μl sample of blood was collected by tail vein puncture. Animals then received 500 μl of 80 mg/ml FITC dextran (4 kDa Merck Ireland) by oral gavage and four hours later a second tail vein blood sample was collected. Tail vein blood sampling is facilitated through use of local anaesthetic EMLA cream following sterilisation of the tail. Blood samples were treated with 15% v/v acid-citrate-dextrose solution as an anticoagulant (38 mM citric acid, 107 mM sodium citrate, 136 mM dextrose), then mixed thoroughly by inversion and centrifuged at 5,000 rpm for 10 minutes. The plasma supernatant was transferred to microfuge tubes stored protected from light at 4° C. Each pre- and post-test plasma sample was diluted 1:5 in 1×PBS and a 100 μl aliquot was transferred to a 96-well plate. Readings of relative fluorescence units by a spectrophotometer were measured in duplicate and averaged. Fluorescence was determined at 530 nm with excitation at 485 nm. Permeability was expressed as relative fluorescence units between the groups being compared, determined by subtracting the PBS blank fluorescence from all samples and then subtracting the post-gavage fluorescence from the pre-gavage fluorescence. Treatment groups were prepared and analysed according to a blocked design to prevent bias.
# [3] = cohort one, risperidone 0.125 mg/kg i.p.
# [4] = study one, risperidone 0.125 mg/kg i.p.
# [5] = cohort two, CBD 30 mg/kg, THC 0 mg/kg p.o.
# [6] = cohort two, CBD 60 mg/kg, THC 0 mg/kg p.o.
# [7] = study one, CBD 60 mg/kg, vs VPA/VEH
compound,measurement,setting,value
"Cc1nc2n(c(=O)c1CCN1CCC(c3noc4cc(F)ccc34)CC1)CCCC2 [Risperidone, risperidone]",Circling,[1]; [3],Ø
same,Grooming,[1]; [3],Ø
same,centre crossing,[1]; [3],Ø
same,centre time,[1]; [3],Ø
same,open field (habituation LMA on day 2),[1]; [3],+
same,open field (spontaneous LMA on day 1),[1]; [3],+
same,"circling and self-grooming, day one or two",[1]; [4],did not reach significance
same,"increased locomotor activity, day two",[1]; [4],significantly reduced
same,"locomotor hyperactivity, day one",[1]; [4],significantly reduced
same,gastrointestinal permeability,[2]; [3],Ø
same,increase in FITC dextran fluorescence (gastrointestinal permeability),[2]; [4],without effect
"C=C(C)[C@@H]1CCC(C)=C[C@H]1c1c(O)cc(CCCCC)cc1O [CBD, cannabidiol]",Circling,"[1]; cohort one, CBD 10 mg/kg p.o.",Ø
same,Grooming,"[1]; cohort one, CBD 10 mg/kg p.o.",Ø
same,centre crossing,"[1]; cohort one, CBD 10 mg/kg p.o.",Ø
same,centre time,"[1]; cohort one, CBD 10 mg/kg p.o.",Ø
same,open field (habituation LMA on day 2),"[1]; cohort one, CBD 10 mg/kg p.o.",Ø
same,open field (spontaneous LMA on day 1),"[1]; cohort one, CBD 10 mg/kg p.o.",Ø
same,Circling,"[1]; cohort one, CBD 30 mg/kg p.o.",Ø
same,Grooming,"[1]; cohort one, CBD 30 mg/kg p.o.",Ø
same,centre crossing,"[1]; cohort one, CBD 30 mg/kg p.o.",Ø
same,centre time,"[1]; cohort one, CBD 30 mg/kg p.o.",Ø
same,open field (habituation LMA on day 2),"[1]; cohort one, CBD 30 mg/kg p.o.",Ø
same,open field (spontaneous LMA on day 1),"[1]; cohort one, CBD 30 mg/kg p.o.",Ø
same,Circling,"[1]; cohort one, CBD 60 mg/kg p.o.",+
same,Grooming,"[1]; cohort one, CBD 60 mg/kg p.o.",+
same,centre crossing,"[1]; cohort one, CBD 60 mg/kg p.o.",Ø
same,centre time,"[1]; cohort one, CBD 60 mg/kg p.o.",Ø
same,open field (habituation LMA on day 2),"[1]; cohort one, CBD 60 mg/kg p.o.",+
same,open field (spontaneous LMA on day 1),"[1]; cohort one, CBD 60 mg/kg p.o.",+
same,Circling,[1]; [5],+
same,Grooming,[1]; [5],Ø
same,centre crossing,[1]; [5],Ø
same,centre time,[1]; [5],Ø
same,open field (habituation LMA on day 2),[1]; [5],Ø
same,open field (spontaneous LMA on day 1),[1]; [5],Ø
same,Circling,[1]; [6],+
same,Grooming,[1]; [6],+
same,centre crossing,[1]; [6],+
same,centre time,[1]; [6],+
same,open field (habituation LMA on day 2),[1]; [6],+
same,open field (spontaneous LMA on day 1),[1]; [6],+
same,"increase in circling behaviour, day 2","[1]; study one, CBD 60 mg/kg",significantly attenuated
same,"increase in self grooming, day 2","[1]; study one, CBD 60 mg/kg",reversed
same,"increase in locomotor activity (distance travelled), day one",[1]; [7],significantly prevented
same,"increase in locomotor activity (distance travelled), day two",[1]; [7],significantly prevented
same,"increase in circling and grooming behaviour, day one","[1]; study one, CBD (10, 30 and 60 mg/kg)",without effect
same,"increase in circling behaviour, day 2","[1]; study two, CBD 30 mg/kg",without effect
same,"increase in circling, day one","[1]; study two, CBD 30 mg/kg",significantly prevented
same,"increase in locomotor activity (distance travelled), day one","[1]; study two, CBD 30 mg/kg",without effect
same,"increase in locomotor activity (distance travelled), day two","[1]; study two, CBD 30 mg/kg",without effect
same,"increase in self grooming, day 2","[1]; study two, CBD 30 mg/kg",without effect
same,"increase in circling behaviour, day 2","[1]; study two, CBD 60 mg/kg",significantly attenuated
same,"increase in circling, day one","[1]; study two, CBD 60 mg/kg",significantly prevented
same,"increase in locomotor activity (distance travelled), day one","[1]; study two, CBD 60 mg/kg",significantly prevented
same,"increase in locomotor activity (distance travelled), day two","[1]; study two, CBD 60 mg/kg",significantly prevented
same,"increase in self grooming, day 2","[1]; study two, CBD 60 mg/kg",reversed
same,gastrointestinal permeability,"[2]; cohort one, CBD 10 mg/kg p.o.",Ø
same,gastrointestinal permeability,"[2]; cohort one, CBD 30 mg/kg p.o.",+
same,gastrointestinal permeability,"[2]; cohort one, CBD 60 mg/kg p.o.",+
same,gastrointestinal permeability,[2]; [5],Ø
same,gastrointestinal permeability,[2]; [6],+
same,increase in FITC dextran fluorescence (gastrointestinal permeability),"[2]; study one, CBD 30 mg/kg, vs VPA/VEH",significantly prevented
same,increase in FITC dextran fluorescence (gastrointestinal permeability),[2]; [7],significantly prevented
same,increase in FITC dextran fluorescence (gastrointestinal permeability),"[2]; study two, CBD 30 mg/kg",without effect
same,increase in FITC dextran fluorescence (gastrointestinal permeability),"[2]; study two, CBD 60 mg/kg",significantly prevented
